Active and inactive are the calls of the source. The rule behind the calls is not given here. Non-standard residues stand in square brackets, D forms with d. Residues, ends and D or L forms follow the SMILES beside them. *: point of attachment. Phe(4-guanidino) = N=C(N)Nc1ccc(C[C@H](N)C(=O)O)cc1; Arg(NO2) = N=C(NCCC[C@H](N)C(=O)O)N[N+](=O)[O-]; Phe(4-NH2) = Nc1ccc(C[C@H](N)C(=O)O)cc1; Sta = CC(C)C[C@H](N)[C@@H](O)CC(=O)O; Arg(Me) = CNC(=N)NCCC[C@H](N)C(=O)O; Cit = NC(=O)NCCC[C@H](N)C(=O)O; NHPhenethyl = c1ccc(CCN*)cc1; Orn = NCCC[C@H](N)C(=O)O; Cbz = O=C(OCc1ccccc1)*; Ms = CS(=O)(=O)*
Assays:
[1] = Inhibition of 2.5 ng recombinant FLAG-tagged Plasmodium vivax PMV expressed in High Five insect cells assessed as fluorogenic substrate cleavage using 12 uM DABCYL-RNKRTLAQKQ-E-EDANS as fluorogenic substrate after 120 mins by fluorescence plate reader method
Plasmodium falciparum [2] = test: Antimalarial activity against ring-stage Plasmodium falciparum 3D7 infected in human erythrocytes assessed as parasite viability after 72 hrs by LDH assay; assay type: functional, organism-based; settings: 3D7, 72 h
HepG2 = test: Cytotoxicity against human HepG2 cells assessed as cell viability after 48 hrs by Cell Titer-Glo assay; assay type: cell-based; settings: HepG2, 48 h
[3] = target: Plasmepsin V (Plasmodium falciparum (isolate 3D7)) (UniProt Q8I6Z5); test: Inhibition of PMV in trophozoite stage of Plasmodium flaciparum 3D7 expressing PfEMP3-GFP infected in human erythrocytes assessed as PEXEL processing of PfEMP3 at 20 uM after 5 hrs by Western blot method; assay type: cell-based; settings: Plasmodium falciparum 3D7
Chain of Plasmepsin V (Plasmodium falciparum (isolate 3D7)) (Q8I6Z5 whole entry, looked up): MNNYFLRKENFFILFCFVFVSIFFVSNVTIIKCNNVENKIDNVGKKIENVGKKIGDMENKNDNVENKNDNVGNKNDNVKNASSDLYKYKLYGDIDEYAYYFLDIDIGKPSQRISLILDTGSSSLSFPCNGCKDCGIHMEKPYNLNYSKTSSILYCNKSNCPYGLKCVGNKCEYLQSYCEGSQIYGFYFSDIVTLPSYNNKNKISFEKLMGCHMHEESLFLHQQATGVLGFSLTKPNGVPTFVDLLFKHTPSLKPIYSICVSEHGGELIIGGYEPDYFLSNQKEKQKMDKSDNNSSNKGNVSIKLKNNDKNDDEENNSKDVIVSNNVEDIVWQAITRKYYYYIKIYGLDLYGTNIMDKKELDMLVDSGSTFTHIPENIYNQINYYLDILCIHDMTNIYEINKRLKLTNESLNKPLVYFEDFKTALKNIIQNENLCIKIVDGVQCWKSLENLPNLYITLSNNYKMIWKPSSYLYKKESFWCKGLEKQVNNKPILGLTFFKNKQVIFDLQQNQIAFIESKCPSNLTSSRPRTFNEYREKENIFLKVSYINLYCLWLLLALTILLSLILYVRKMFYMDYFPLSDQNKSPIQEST

[4] = Ratio of EC50 for ring-stage Plasmodium falciparum 3D7 to IC50 for recombinant FLAG-tagged Plasmodium vivax PMV
[5] = target: Plasmepsin V (Plasmodium falciparum (isolate 3D7)) (UniProt Q8I6Z5); test: Inhibition of PMV in trophozoite stage of Plasmodium flaciparum 3D7 expressing PfEMP3-GFP infected in human erythrocytes assessed as PEXEL processing of PfEMP3 at 1 to 20 uM after 5 hrs by Western blot method; assay type: cell-based; settings: Plasmodium falciparum 3D7
[6] = Inhibition of 1 ng recombinant FLAG-tagged Plasmodium vivax PMV expressed in High Five insect cells assessed as fluorogenic substrate cleavage using 7.5 uM DABCYL-RNKRTLAQKQ-E-EDANS as fluorogenic substrate after 120 mins by fluorescence plate reader method
Plasmepsin V = Plasmepsin V (Plasmodium falciparum (isolate 3D7), UniProt Q8I6Z5); test: Inhibition of Plasmodium falciparum PMV assessed as fluorogenic substrate cleavage using DABCYL-RNKRTLAQKQ-E-EDANS as fluorogenic substrate after 120 mins by fluorescence plate reader method
Chain of Plasmepsin V (Q8I6Z5 whole entry): as the sequence (Q8I6Z5 whole entry, looked up) above

Plasmodium falciparum [7] = test: Antimalarial activity against Plasmodium falciparum 3D7 infected in human erythrocytes assessed as parasite viability after 72 hrs by flow cytometry; assay type: functional, organism-based; settings: 3D7, 72 h

| Compound | IC50 [1] | EC50 (Plasmodium falciparum [2]) | EC50 (HepG2) | further results |
| --- | --- | --- | --- | --- |
| CC(C)C[C@H](NC(=O)[C@@H](NC(=O)[C@H](CCCNC(=N)N[N+](=O)[O-])NC(=O)OCc1ccccc1)C(C)C)[C@@H](O)CC(=O)NCCc1ccccc1 (Cbz-[Arg(NO2)]-Val-[Sta]-NHPhenethyl) | > 50 µM |  |  |  |
| CNC(=N)NCCC[C@H](NC(=O)OCc1ccccc1)C(=O)N[C@H](C(=O)N[C@@H](CC(C)C)[C@@H](O)CC(=O)NCCc1ccccc1)C(C)C (Cbz-[Arg(Me)]-Val-[Sta]-NHPhenethyl) | 37.7 µM | 12.7 µM | > 50 µM |  |
| CC(C)C[C@H](NC(=O)[C@@H](NC(=O)[C@H](Cc1ccc(NC(=N)N)cc1)NC(=O)OCc1ccccc1)C(C)C)[C@@H](O)CC(=O)NCCc1ccccc1 (Cbz-[Phe(4-guanidino)]-Val-[Sta]-NHPhenethyl) | > 50 µM |  |  |  |
| CC(=N)NCCC[C@H](NC(=O)OCc1ccccc1)C(=O)N[C@H](C(=O)N[C@@H](CC(C)C)[C@@H](O)CC(=O)NCCc1ccccc1)C(C)C | 40.3 µM | 21.4 µM | > 50 µM | inhibition [3]: inactive |
| CC(C)C[C@H](NC(=O)[C@@H](NC(=O)[C@H](CCONC(=N)N)NC(=O)OCc1ccccc1)C(C)C)[C@@H](O)CC(=O)NCCc1ccccc1 | 0.01 µM | 0.229 µM | > 50 µM | Ratio [4]: 25; inhibition [5]: Active; IC50 [6]: 0.0016 µM; IC50 (Plasmepsin V): 0.0008 µM; EC50 (Plasmodium falciparum [7]): 0.4 µM |
| CC(C)C[C@H](NC(=O)[C@@H](NC(=O)[C@H](Cc1cccc(N)c1)NC(=O)OCc1ccccc1)C(C)C)[C@@H](O)CC(=O)NCCc1ccccc1 | > 50 µM |  |  |  |
| CC(C)C[C@H](NC(=O)[C@@H](NC(=O)[C@H](CCCNS(C)(=O)=O)NC(=O)OCc1ccccc1)C(C)C)[C@@H](O)CC(=O)NCCc1ccccc1 (Cbz-[Orn](Ms)-Val-[Sta]-NHPhenethyl) | > 50 µM |  |  |  |
| CC(C)C[C@H](NC(=O)[C@@H](NC(=O)[C@H](CCCNC(C)C)NC(=O)OCc1ccccc1)C(C)C)[C@@H](O)CC(=O)NCCc1ccccc1 | > 50 µM |  |  |  |
| CC(C)C[C@H](NC(=O)[C@@H](NC(=O)[C@H](Cc1ccc(N)cc1)NC(=O)OCc1ccccc1)C(C)C)[C@@H](O)CC(=O)NCCc1ccccc1 (Cbz-[Phe(4-NH2)]-Val-[Sta]-NHPhenethyl) | > 50 µM |  |  |  |
| CC(C)C[C@H](NC(=O)[C@@H](NC(=O)[C@H](CCCNC(=N)N)NC(=O)OCc1ccccc1)C(C)C)[C@@H](O)CC(=O)NCCc1ccccc1 (Cbz-Arg-Val-[Sta]-NHPhenethyl) | 0.128 µM | 3.26 µM | > 50 µM | inhibition [3]: Active |
| CC(C)C[C@H](NC(=O)[C@@H](NC(=O)[C@H](CCCNC(=N)NC#N)NC(=O)OCc1ccccc1)C(C)C)[C@@H](O)CC(=O)NCCc1ccccc1 | > 50 µM |  |  |  |
| CC(=O)NCCC[C@H](NC(=O)OCc1ccccc1)C(=O)N[C@H](C(=O)N[C@@H](CC(C)C)[C@@H](O)CC(=O)NCCc1ccccc1)C(C)C (Cbz-[Orn](Ac)-Val-[Sta]-NHPhenethyl) | > 50 µM |  |  |  |
| CONC(=N)NCCC[C@H](NC(=O)OCc1ccccc1)C(=O)N[C@H](C(=O)N[C@@H](CC(C)C)[C@@H](O)CC(=O)NCCc1ccccc1)C(C)C | 18 µM | 1.97 µM | > 50 µM |  |
| CC(C)C[C@H](NC(=O)[C@@H](NC(=O)[C@H](CCCN(C)C(=N)N)NC(=O)OCc1ccccc1)C(C)C)[C@@H](O)CC(=O)NCCc1ccccc1 | > 50 µM |  |  |  |
| CC(C)C[C@H](NC(=O)[C@@H](NC(=O)[C@H](CCCNC(=N)NO)NC(=O)OCc1ccccc1)C(C)C)[C@@H](O)CC(=O)NCCc1ccccc1 | 3.88 µM | 3.97 µM | > 50 µM | inhibition [3]: inactive |
| CC(C)C[C@H](NC(=O)[C@@H](NC(=O)[C@H](Cc1cccc(NC(=N)N)c1)NC(=O)OCc1ccccc1)C(C)C)[C@@H](O)CC(=O)NCCc1ccccc1 | > 50 µM |  |  |  |
| CCN(CC)CCCC(C)Nc1ccnc2cc(Cl)ccc12 (stereo not given) [CHLOROQUINE] |  | 0.012 µM |  |  |
| CC(C)C[C@H](NC(=O)[C@@H](NC(=O)[C@H](CCONC(=N)N)NC(=O)OCc1ccccc1)C(C)C)[C@H](O)CC(=O)NCCc1ccccc1 | 2.74 µM | 5.65 µM | > 50 µM | inhibition [3]: inactive |
| CC(C)C[C@H](NC(=O)[C@@H](NC(=O)[C@H](CCCNC(N)=O)NC(=O)OCc1ccccc1)C(C)C)[C@@H](O)CC(=O)NCCc1ccccc1 (Cbz-[Cit]-Val-[Sta]-NHPhenethyl) | > 50 µM |  |  |  |
| CC(C)C[C@H](NC(=O)[C@@H](NC(=O)[C@H](CCC(=O)NC(=N)N)NC(=O)OCc1ccccc1)C(C)C)[C@@H](O)CC(=O)NCCc1ccccc1 | 41.6 µM | 3.33 µM | > 50 µM |  |

Source: ChEMBL document CHEMBL3779849, “Exploration of the P3 region of PEXEL peptidomimetics leads to a potent inhibitor of the Plasmodium protease, plasmepsin V” (Bioorg Med Chem, 2016)
